Measured values from PubChem BioAssay (NCI).
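Following 48 hours of exposure in 96-well plates, responses at five concentrations were used to interpolate endpoints linearly. TGI denotes the concentration required for complete inhibition of growth.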

Assays:
Assay in all cases: NCI anticancer screen, dose series, 48 h
OVCAR-5 ovarian = tested on: OVCAR-5 ovarian
SR leukemia = tested on: SR leukemia
HOP-92 NSCLC = tested on: HOP-92 NSCLC
IGROV1 ovarian = tested on: IGROV1 ovarian
XF 498 CNS = tested on: XF 498 CNS
A549 NSCLC = tested on: A549 NSCLC
RXF-631 renal = tested on: RXF-631 renal
MOLT-4 leukemia = tested on: MOLT-4 leukemia
NCI-H226 lung = tested on: NCI-H226 lung
DMS 114 small cell lung = tested on: DMS 114 small cell lung
HL-60(TB) leukemia = tested on: HL-60(TB) leukemia
HT29 colon = tested on: HT29 colon
786-0 renal = tested on: 786-0 renal
CCRF-CEM leukemia = tested on: CCRF-CEM leukemia
DLD-1 colon = tested on: DLD-1 colon
OVCAR-4 ovarian = tested on: OVCAR-4 ovarian
U251 CNS = tested on: U251 CNS
UACC-62 melanoma = tested on: UACC-62 melanoma
SNB-75 CNS = tested on: SNB-75 CNS
HOP-18 NSCLC = tested on: HOP-18 NSCLC
CAKI-1 renal = tested on: CAKI-1 renal
SNB-19 CNS = tested on: SNB-19 CNS
NCI-H23 lung = tested on: NCI-H23 lung
ACHN renal = tested on: ACHN renal
OVCAR-3 ovarian = tested on: OVCAR-3 ovarian
RPMI-8226 leukemia = tested on: RPMI-8226 leukemia
COLO 205 colon = tested on: COLO 205 colon
LOX IMVI melanoma = tested on: LOX IMVI melanoma
SK-OV-3 ovarian = tested on: SK-OV-3 ovarian
RXF 393 renal = tested on: RXF 393 renal
M14 melanoma = tested on: M14 melanoma
HCC-2998 colon = tested on: HCC-2998 colon
KM20L2 colon = tested on: KM20L2 colon
TK-10 renal = tested on: TK-10 renal
K-562 leukemia = tested on: K-562 leukemia
HOP-62 NSCLC = tested on: HOP-62 NSCLC
M19-MEL melanoma = tested on: M19-MEL melanoma
A498 renal = tested on: A498 renal
UO-31 renal = tested on: UO-31 renal
SK-MEL-28 melanoma = tested on: SK-MEL-28 melanoma
UACC-257 melanoma = tested on: UACC-257 melanoma
HCT-116 colon = tested on: HCT-116 colon
SF-268 CNS = tested on: SF-268 CNS
SF-295 CNS = tested on: SF-295 CNS
KM12 colon = tested on: KM12 colon
SF-539 CNS = tested on: SF-539 CNS
SW-620 colon = tested on: SW-620 colon
NCI-H522 lung = tested on: NCI-H522 lung
MALME-3M melanoma = tested on: MALME-3M melanoma
EKVX NSCLC = tested on: EKVX NSCLC
NCI-H460 lung = tested on: NCI-H460 lung
HCT-15 colon = tested on: HCT-15 colon
SK-MEL-5 melanoma = tested on: SK-MEL-5 melanoma
OVCAR-8 ovarian = tested on: OVCAR-8 ovarian
SN12C renal = tested on: SN12C renal
DMS 273 small cell lung = tested on: DMS 273 small cell lung
SK-MEL-2 melanoma = tested on: SK-MEL-2 melanoma
LXFL 529 NSCLC = tested on: LXFL 529 NSCLC
SNB-78 CNS = tested on: SNB-78 CNS

For `C(=C\c1cc(CCc2nc3ccccc3[nH]2)[nH]n1)/c1ccccc1`, the TGI (OVCAR-5 ovarian) was over 100 µM, the TGI (SR leukemia) was over 100 µM and the TGI (HOP-92 NSCLC) was over 100 µM. The TGI (IGROV1 ovarian) was over 100 µM, the TGI (XF 498 CNS) was over 100 µM and the TGI (A549 NSCLC) was over 100 µM. For the same compound, the TGI (RXF-631 renal) was over 100 µM, the TGI (MOLT-4 leukemia) was over 100 µM and the TGI (NCI-H226 lung) was over 100 µM. The TGI (DMS 114 small cell lung) was over 100 µM, the TGI (HL-60(TB) leukemia) was over 100 µM and the TGI (HT29 colon) was over 100 µM. For the same compound, the TGI (786-0 renal) was over 100 µM, the TGI (CCRF-CEM leukemia) was over 100 µM and the TGI (DLD-1 colon) was over 100 µM. It also gave a TGI (OVCAR-4 ovarian) of over 100 µM, a TGI (U251 CNS) of over 100 µM and a TGI (UACC-62 melanoma) of over 100 µM. It also gave a TGI (SNB-75 CNS) of over 100 µM, a TGI (HOP-18 NSCLC) of over 100 µM and a TGI (CAKI-1 renal) of over 100 µM. For the same compound, the TGI (SNB-19 CNS) was over 100 µM, the TGI (NCI-H23 lung) was over 100 µM and the TGI (ACHN renal) was over 100 µM. For the same compound, the TGI (OVCAR-3 ovarian) was over 100 µM, the TGI (RPMI-8226 leukemia) was over 100 µM and the TGI (COLO 205 colon) was over 100 µM. For the same compound, the TGI (LOX IMVI melanoma) was over 100 µM, the TGI (SK-OV-3 ovarian) was over 100 µM and the TGI (RXF 393 renal) was over 100 µM. For the same compound, the TGI (M14 melanoma) was over 100 µM, the TGI (HCC-2998 colon) was over 100 µM and the TGI (KM20L2 colon) was over 100 µM. For the same compound, the TGI (TK-10 renal) was over 100 µM, the TGI (K-562 leukemia) was over 100 µM and the TGI (HOP-62 NSCLC) was over 100 µM. It also gave a TGI (M19-MEL melanoma) of over 100 µM, a TGI (A498 renal) of over 100 µM and a TGI (UO-31 renal) of over 100 µM. It also gave a TGI (SK-MEL-28 melanoma) of over 100 µM, a TGI (UACC-257 melanoma) of over 100 µM and a TGI (HCT-116 colon) of over 100 µM. The TGI (SF-268 CNS) was over 100 µM, the TGI (SF-295 CNS) was over 100 µM and the TGI (KM12 colon) was over 100 µM. The TGI (SF-539 CNS) was over 100 µM, the TGI (SW-620 colon) was over 100 µM and the TGI (NCI-H522 lung) was over 100 µM. The TGI (MALME-3M melanoma) was over 100 µM, the TGI (EKVX NSCLC) was over 100 µM and the TGI (NCI-H460 lung) was over 100 µM. It also gave a TGI (HCT-15 colon) of over 100 µM, a TGI (SK-MEL-5 melanoma) of over 100 µM and a TGI (OVCAR-8 ovarian) of over 100 µM. The TGI (SN12C renal) was over 100 µM.

In the case of `Cn1cc(NC(=O)c2cc(NC(=O)CCCCCCCCC(=O)Nc3cc(C(=O)Nc4cc(C(=O)NCCC(N)N)n(C)c4)n(C)c3)cn2C)cc1C(=O)NCCC(=N)N`, the TGI (OVCAR-5 ovarian) was 45.3 µM, the TGI (HOP-92 NSCLC) was 65.2 µM and the TGI (IGROV1 ovarian) was 74.4 µM. The TGI (XF 498 CNS) was 66.8 µM, the TGI (A549 NSCLC) was 40 µM and the TGI (RXF-631 renal) was 71.2 µM. It also gave a TGI (MOLT-4 leukemia) of 49.1 µM, a TGI (NCI-H226 lung) of 70.7 µM and a TGI (DMS 273 small cell lung) of 55.8 µM. It also gave a TGI (HT29 colon) of 49.7 µM, a TGI (786-0 renal) of 47.1 µM and a TGI (CCRF-CEM leukemia) of 49.3 µM. The TGI (DLD-1 colon) was 73.9 µM, the TGI (OVCAR-4 ovarian) was over 100 µM and the TGI (U251 CNS) was 36.8 µM. It also gave a TGI (UACC-62 melanoma) of 60.1 µM, a TGI (SK-MEL-2 melanoma) of 49.3 µM and a TGI (SNB-75 CNS) of 55.3 µM. For the same compound, the TGI (HOP-18 NSCLC) was 47.2 µM, the TGI (CAKI-1 renal) was 49.7 µM and the TGI (SNB-19 CNS) was 62.5 µM. It also gave a TGI (NCI-H23 lung) of over 100 µM, a TGI (ACHN renal) of 36.5 µM and a TGI (OVCAR-3 ovarian) of 74.5 µM. The TGI (LXFL 529 NSCLC) was 76.9 µM, the TGI (RPMI-8226 leukemia) was 28.6 µM and the TGI (COLO 205 colon) was over 100 µM. For the same compound, the TGI (LOX IMVI melanoma) was over 100 µM, the TGI (SK-OV-3 ovarian) was 78.7 µM and the TGI (RXF 393 renal) was 43.2 µM. It also gave a TGI (M14 melanoma) of 66.3 µM, a TGI (HCC-2998 colon) of 52 µM and a TGI (KM20L2 colon) of 44 µM. It also gave a TGI (TK-10 renal) of 38.9 µM, a TGI (K-562 leukemia) of 40.9 µM and a TGI (HOP-62 NSCLC) of 59.4 µM. The TGI (M19-MEL melanoma) was 66 µM, the TGI (UO-31 renal) was 56.9 µM and the TGI (SK-MEL-28 melanoma) was 43.2 µM. The TGI (UACC-257 melanoma) was 57 µM, the TGI (HCT-116 colon) was 55.3 µM and the TGI (SF-268 CNS) was 66.1 µM. For the same compound, the TGI (SF-295 CNS) was 74.8 µM, the TGI (SNB-78 CNS) was 93.1 µM and the TGI (KM12 colon) was 63.4 µM. It also gave a TGI (SF-539 CNS) of 54.4 µM, a TGI (SW-620 colon) of 44.9 µM and a TGI (NCI-H522 lung) of 79.2 µM. For the same compound, the TGI (MALME-3M melanoma) was 15.5 µM, the TGI (EKVX NSCLC) was 48.1 µM and the TGI (NCI-H460 lung) was 62 µM. The TGI (HCT-15 colon) was over 100 µM, the TGI (SK-MEL-5 melanoma) was 30.2 µM and the TGI (OVCAR-8 ovarian) was 52.4 µM. The TGI (SN12C renal) was 68.9 µM.
